We go through 38 compounds from patent US7414061B2, “Aryl-isoxazol-4-yl-imidazole derivatives” (Hoffmann-La Roche Inc., priority 2005, dated 2008).

For the test, the target named is T1, GABA A receptor α5β3γ2 (hα5) (Homo sapiens, UniProt P18507+P31644).
T1 construct: expressed in transfected cells; host or cells: HEK293 (transiently transfected), membrane preparation
Kind of test: [3H]flumazenil competition binding assay, human GABA A α5β3γ2. The settings on record: displacement of [3H]flumazenil (0.5 nM) from HEK293 cell membranes expressing α5β3γ2; means of two determinations; read-out: Ki[nM] hα5. Here is the method:
The affinity of compounds at GABA A receptor subtypes was measured by competition for [3H]flumazenil (85 Ci/mmol; Roche) binding to HEK293 cells expressing rat (stably transfected) or human (transiently transfected) receptors of composition α1β3γ2, α2β3γ2, α3β3γ2 and α5β3γ2.
Cell pellets were suspended in Krebs-tris buffer (4.8 mM KCl, 1.2 mM CaCl2, 1.2 mM MgCl2, 120 mM NaCl, 15 mM Tris; pH 7.5; binding assay buffer), homogenized by polytron for ca. 20 sec on ice and centrifuged for 60 min at 4° C. (50000 g; Sorvall, rotor: SM24=20000 rpm). The cell pellets were resuspended in Krebs-tris buffer and homogenized by polytron for ca. 15 sec on ice. Protein was measured (Bradford method, Bio-Rad) and aliquots of 1 mL were prepared and stored at −80° C.
Radioligand binding assays were carried out in a volume of […] (96-well plates) which contained […] of cell membranes, [3H]flumazenil at a concentration of 1 nM for α1, α2, α3 subunits and 0.5 nM for α5 subunits and the test compound in the range of […]. Nonspecific binding was defined by 10^−5 M diazepam and typically represented less than 5% of the total binding. Assays were incubated to equilibrium for 1 hour at 4° C. and harvested onto GF/C uni-filters (Packard) by filtration using a Packard harvester and washing with ice-cold wash buffer (50 mM Tris; pH 7.5). After drying, filter-retained radioactivity was detected by liquid scintillation counting. Ki values were calculated using Excel-Fit (Microsoft) and are the means of two determinations.
On the technique in general: Displacement assays read how much labelled ligand stays bound in the presence of the test substance.

A word on the Ki: it is a measure of affinity in units of concentration, obtained from inhibition or displacement. Turning to “1-{4-(4-[5-Ethyl-3-(4-fluoro-phenyl)-isoxazol-4-yl]-imidazol-1-yl}-phenyl)-ethanone [Example 132]”, the Ki is 4.7 nM.

As to “4-{4-[3-(3-Fluoro-phenyl)-5-methyl-isoxazol-4-yl]-imidazol-1-yl}-N-[2-(1H-imidazol-4-yl)-ethyl]-benzamide [Example 104]”, the Ki was 31.5 nM.

For the compound “5-Ethyl-4-[1-(4-nitro-phenyl)-1H-imidazol-4-yl]-3-phenyl-isoxazole [Example 31]”, the Ki worked out at 5 nM.

`Cc1onc(-c2ccccc2)c1-c1cn(-c2ccccc2)cn1` [Example 2, 5-Methyl-3-phenyl-4-(1-phenyl-1H-imidazol-4-yl)-isoxazole]: the Ki is 21.7 nM.

Regarding `Cc1onc(-c2ccccc2)c1-c1cn(-c2ccc(F)cc2)cn1` [Example 3, 4-[1-(4-Fluoro-phenyl)-1H-imidazol-4-yl]-5-methyl-3-phenyl-isoxazole], the Ki is 29.6 nM.

Consider `Cc1onc(-c2ccccc2)c1-c1cn(-c2cccc(F)c2)cn1` [Example 4, 4-[1-(3-Fluoro-phenyl)-1H-imidazol-4-yl]-5-methyl-3-phenyl-isoxazole], for which the Ki turned out to be 33.1 nM.

Regarding `Cc1onc(-c2ccccc2)c1-c1cn(-c2cccc(Cl)c2)cn1` [Example 5, 4-[1-(3-Chloro-phenyl)-1H-imidazol-4-yl]-5-methyl-3-phenyl-isoxazole], the Ki is 29.1 nM.

Take `Cc1onc(-c2ccccc2)c1-c1cn(-c2cccc(Br)c2)cn1` [Example 7, 4-[1-(3-Bromo-phenyl)-1H-imidazol-4-yl]-5-methyl-3-phenyl-isoxazole]: the Ki was found to be 30.9 nM.

Turning to `CCCc1ccc(-n2cnc(-c3c(-c4ccccc4)noc3C)c2)cc1` [Example 9, 5-Methyl-3-phenyl-4-[1-(4-propyl-phenyl)-1H-imidazol-4-yl]-isoxazole], the Ki worked out at 25.5 nM.

As for `Cc1onc(-c2ccccc2)c1-c1cn(-c2cccc(C(F)(F)F)c2)cn1` [Example 10, 5-Methyl-3-phenyl-4-[1-(3-trifluoromethyl-phenyl)-1H-imidazol-4-yl]-isoxazole], the Ki turned out to be 20.4 nM.

Consider `COC(=O)c1cccc(-n2cnc(-c3c(-c4ccccc4)noc3C)c2)c1` [Example 11, 3-[4-(5-Methyl-3-phenyl-isoxazol-4-yl)-imidazol-1-yl]-benzoic acid methyl ester], for which the Ki came out at 15.1 nM.

Take `CC(=O)c1ccc(-n2cnc(-c3c(-c4ccccc4)noc3C)c2)cc1` [Example 12, 1-{4-[4-(5-Methyl-3-phenyl-isoxazol-4-yl)-imidazol-1-yl]-phenyl}-ethanone]: the Ki worked out at 5.5 nM.

As for `Cc1onc(-c2ccccc2)c1-c1cn(-c2ccc([N+](=O)[O-])cc2)cn1` [Example 13, 5-Methyl-4-[1-(4-nitro-phenyl)-1H-imidazol-4-yl]-3-phenyl-isoxazole], the Ki worked out at 11.9 nM.

For the compound `Cc1onc(-c2ccccc2)c1-c1cn(-c2ccc(C(F)(F)F)cc2)cn1` [Example 14, 5-Methyl-3-phenyl-4-[1-(4-trifluoromethyl-phenyl)-1H-imidazol-4-yl]-isoxazole], the Ki turned out to be 30.7 nM.

In the case of `Cc1onc(-c2ccccc2)c1-c1cn(-c2ccc(C#N)cc2)cn1` [Example 16, 4-[4-(5-Methyl-3-phenyl-isoxazol-4-yl)-imidazol-1-yl]-benzonitrile], the Ki turned out to be 15.1 nM.

With `Cc1onc(-c2ccccc2)c1-c1cn(-c2cccc(C#N)c2)cn1` [Example 17, 3-[4-(5-Methyl-3-phenyl-isoxazol-4-yl)-imidazol-1-yl]-benzonitrile], the Ki worked out at 27 nM.

Take `COc1ccc(-n2cnc(-c3c(-c4ccccc4)noc3C)c2)cc1` [Example 18, 4-[1-(4-Methoxy-phenyl)-1H-imidazol-4-yl]-5-methyl-3-phenyl-isoxazole]: the Ki came to 21 nM.

As for `CCOc1ccc(-n2cnc(-c3c(-c4ccccc4)noc3C)c2)cc1` [Example 19, 4-[1-(4-Ethoxy-phenyl)-1H-imidazol-4-yl]-5-methyl-3-phenyl-isoxazole], the Ki is 28.7 nM.

For `CCOc1ccccc1-n1cnc(-c2c(-c3ccccc3)noc2C)c1` [Example 20, 4-[1-(2-Ethoxy-phenyl)-1H-imidazol-4-yl]-5-methyl-3-phenyl-isoxazole], the Ki came to 32.4 nM.

Take `CSc1ccc(-n2cnc(-c3c(-c4ccccc4)noc3C)c2)cc1` [Example 21, 5-Methyl-4-[1-(4-methylsulfanyl-phenyl)-1H-imidazol-4-yl]-3-phenyl-isoxazole]: the Ki turned out to be 31.5 nM.

On to `Cc1onc(-c2ccccc2)c1-c1cn(-c2cc(F)cc(F)c2)cn1` [Example 24, 4-[1-(3,5-Difluoro-phenyl)-1H-imidazol-4-yl]-5-methyl-3-phenyl-isoxazole], for which the Ki stood at 29 nM.

Turning to `CCc1onc(-c2ccccc2)c1-c1cn(-c2ccc(C(C)=O)cc2)cn1` [Example 30, 1-{4-[4-(5-Ethyl-3-phenyl-isoxazol-4-yl)-imidazol-1-yl]-phenyl}-ethanone], the Ki is 9.9 nM.

Take `Cc1onc(-c2ccccc2)c1-c1cn(-c2ccccn2)cn1` [Example 32, 2-[4-(5-Methyl-3-phenyl-isoxazol-4-yl)-imidazol-1-yl]-pyridine]: the Ki is 19.3 nM.

As to `Cc1onc(-c2ccccc2)c1-c1cn(-c2ncccn2)cn1` [Example 33, 2-[4-(5-Methyl-3-phenyl-isoxazol-4-yl)-imidazol-1-yl]-pyrimidine], the Ki came out at 15 nM.

Consider `CC(=O)c1ccc(-n2cnc(-c3c(-c4ccccc4F)noc3C)c2)cc1` [Example 36, 1-(4-{4-[3-(2-Fluoro-phenyl)-5-methyl-isoxazol-4-yl]-imidazol-1-yl}-phenyl)-ethanone], for which the Ki was determined as 7.8 nM.

In the case of `COc1ccc(-n2cnc(-c3c(-c4ccccc4F)noc3C)c2)cc1` [Example 38, 3-(2-Fluoro-phenyl)-4-[1-(4-methoxy-phenyl)-1H-imidazol-4-yl]-5-methyl-isoxazole], the Ki was 24 nM.

As to `Cc1onc(-c2ccccc2F)c1-c1cn(-c2ncccn2)cn1` [Example 39, 2-{4-[3-(2-Fluoro-phenyl)-5-methyl-isoxazol-4-yl]-imidazol-1-yl}-pyrimidine], the Ki was determined as 18.3 nM.

Regarding `CC(=O)c1ccc(-n2cnc(-c3c(-c4ccc(F)cc4)noc3C)c2)cc1` [Example 46, 1-(4-{4-[3-(4-Fluoro-phenyl)-5-methyl-isoxazol-4-yl]-imidazol-1-yl}-phenyl)-ethanone], the Ki turned out to be 4.7 nM.

Regarding `Cc1onc(-c2ccc(F)cc2)c1-c1cn(-c2ccc([N+](=O)[O-])cc2)cn1` [Example 47, 3-(4-Fluoro-phenyl)-5-methyl-4-[1-(4-nitro-phenyl)-1H-imidazol-4-yl]-isoxazole], the Ki stood at 16.6 nM.

Turning to `Cc1onc(-c2ccc(F)cc2)c1-c1cn(-c2ncccn2)cn1` [Example 48, 2-{4-[3-(4-Fluoro-phenyl)-5-methyl-isoxazol-4-yl]-imidazol-1-yl}-pyrimidine], the Ki came out at 17.6 nM.

For `CC(=O)c1ccc(-n2cnc(-c3c(-c4ccc(Br)cc4)noc3C)c2)cc1` [Example 49, 1-(4-{4-[3-(4-Bromo-phenyl)-5-methyl-isoxazol-4-yl]-imidazol-1-yl}-phenyl)-ethanone], the Ki amounted to 9.1 nM.

For `Cc1onc(-c2ccc(Br)cc2)c1-c1cn(-c2ccc([N+](=O)[O-])cc2)cn1` [Example 50, 3-(4-Bromo-phenyl)-5-methyl-4-[1-(4-nitro-phenyl)-1H-imidazol-4-yl]-isoxazole], the Ki was 21.6 nM.

For `Cc1onc(-c2ccc(Br)cc2)c1-c1cn(-c2ncccn2)cn1` [Example 51, 2-{4-[3-(4-Bromo-phenyl)-5-methyl-isoxazol-4-yl]-imidazol-1-yl}-pyrimidine], the Ki was 28.5 nM.

For the compound `CC(=O)c1ccc(-n2cc(-c3c(-c4ccccc4)noc3C)nc2COCc2ccccc2)cc1` [Example 62, 1-{4-[2-Benzyloxymethyl-4-(5-methyl-3-phenyl-isoxazol-4-yl)-imidazol-1-yl]-phenyl}-ethanone], the Ki is 5.4 nM.

With `Cc1onc(-c2ccccc2)c1-c1cn(-c2ccc([N+](=O)[O-])cc2)c(COCc2ccccc2)n1` [Example 63, 4-[2-Benzyloxymethyl-1-(4-nitro-phenyl)-1H-imidazol-4-yl]-5-methyl-3-phenyl-isoxazole], the inhibition constant (Ki) is 14.4 nM.

On to `Cc1onc(-c2ccccc2)c1-c1cn(-c2ccc(C(F)(F)F)cc2)c(COCc2ccccc2)n1` [Example 64, 4-[2-Benzyloxymethyl-1-(4-trifluoromethyl-phenyl)-1H-imidazol-4-yl]-5-methyl-3-phenyl-isoxazole], for which the Ki turned out to be 14.7 nM.

`Cc1onc(-c2ccccc2)c1-c1cn(-c2ccc(C#N)cc2)c(COCc2ccccc2)n1` [Example 65, 4-[2-Benzyloxymethyl-4-(5-methyl-3-phenyl-isoxazol-4-yl)-imidazol-1-yl]-benzonitrile]: the Ki came to 19.1 nM.

`Cc1onc(-c2ccccc2)c1-c1cn(-c2ncccn2)c(COCc2ccccc2)n1` [Example 66, 2-[2-Benzyloxymethyl-4-(5-methyl-3-phenyl-isoxazol-4-yl)-imidazol-1-yl]-pyrimidine]: the Ki stood at 6.7 nM.
